Measured values: ChEMBL document CHEMBL2157958, “4-Isoxazolyl-1,4-dihydropyridines exhibit binding at the multidrug-resistance transporter” (Bioorg Med Chem, 2012)
pKi: −log10 of the molar value.

Key:
[1] = target: MDR1 (P-glycoprotein, ABCB1) (Homo sapiens, UniProt P08183); test: Inhibition of MDR1 in human Caco2 cells assessed as calcein accumulation after 30 mins by fluorescence assay; type: cell-based; set-up: concentration or dose not given beside the values; conditions: Caco-2 cells
[2] = Binding affinity at VGCC by patch clamp method
[3] = Binding affinity at VGCC

Sequence of MDR1 (P-glycoprotein, ABCB1) (P08183 whole entry): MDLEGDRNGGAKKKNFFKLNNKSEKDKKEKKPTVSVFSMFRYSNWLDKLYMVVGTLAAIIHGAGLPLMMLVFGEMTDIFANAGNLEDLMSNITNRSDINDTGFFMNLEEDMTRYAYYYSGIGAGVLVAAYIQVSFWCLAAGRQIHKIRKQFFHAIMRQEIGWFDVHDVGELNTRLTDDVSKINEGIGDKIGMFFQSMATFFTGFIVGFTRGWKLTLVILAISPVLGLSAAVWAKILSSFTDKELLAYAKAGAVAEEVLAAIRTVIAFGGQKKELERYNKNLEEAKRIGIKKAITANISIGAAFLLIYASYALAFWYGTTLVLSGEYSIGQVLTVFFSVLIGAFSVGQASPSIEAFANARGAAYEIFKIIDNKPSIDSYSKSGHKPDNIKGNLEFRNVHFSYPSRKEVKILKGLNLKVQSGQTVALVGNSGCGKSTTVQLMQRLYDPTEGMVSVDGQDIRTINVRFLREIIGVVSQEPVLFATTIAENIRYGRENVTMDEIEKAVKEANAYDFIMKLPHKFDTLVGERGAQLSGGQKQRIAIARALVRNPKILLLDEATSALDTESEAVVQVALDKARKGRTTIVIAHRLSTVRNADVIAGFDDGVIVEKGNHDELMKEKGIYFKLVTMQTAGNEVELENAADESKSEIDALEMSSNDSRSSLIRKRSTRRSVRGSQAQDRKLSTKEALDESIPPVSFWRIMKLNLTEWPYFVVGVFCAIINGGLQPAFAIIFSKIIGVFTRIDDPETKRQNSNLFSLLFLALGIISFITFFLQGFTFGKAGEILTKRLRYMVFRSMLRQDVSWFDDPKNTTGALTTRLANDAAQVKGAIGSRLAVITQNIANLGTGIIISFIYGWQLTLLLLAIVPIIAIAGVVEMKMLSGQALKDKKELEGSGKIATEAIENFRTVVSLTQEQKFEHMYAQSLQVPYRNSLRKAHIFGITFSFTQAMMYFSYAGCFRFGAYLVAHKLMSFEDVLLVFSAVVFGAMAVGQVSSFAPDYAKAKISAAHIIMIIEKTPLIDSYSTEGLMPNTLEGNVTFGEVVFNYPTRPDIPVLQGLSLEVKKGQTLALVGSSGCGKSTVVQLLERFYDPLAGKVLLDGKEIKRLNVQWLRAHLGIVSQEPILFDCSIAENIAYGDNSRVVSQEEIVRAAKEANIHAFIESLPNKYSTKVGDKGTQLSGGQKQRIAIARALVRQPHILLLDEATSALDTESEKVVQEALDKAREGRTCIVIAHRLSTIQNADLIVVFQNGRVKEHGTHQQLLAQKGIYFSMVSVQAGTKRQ

| SMILES | inhibition at 0.5 h [1] [%] | Activity [2] [µM] | pKi [3] |
| --- | --- | --- | --- |
| CCOC(=O)C1=C(C)NC(C)=C(C(=O)OCC)C1c1c(C)noc1C(C)Cc1cccc2ccccc12 (stereo unspecified) | 38.3 |  |  |
| CCOC(=O)C1=C(C)N=C(C)/C(=C(/O)OCC)C1c1c(-c2cc(Cl)ccc2OC)noc1C (stereo unspecified) | 15 | 6.86 |  |
| CCOC(=O)C1=C(C)N=C(C)/C(=C(/O)OCC)C1c1c(-c2ccccc2OC)noc1C (stereo unspecified) | 32.8 | 17.1 |  |
| CCOC(=O)C1=C(C)N=C(C)/C(=C(/O)OCC)C1c1c(C)noc1CCc1cccc2ccccc12 (stereo unspecified) | 19 | 0.47 | 8.39 |
| CCOC(=O)C1=C(C)NC(C)=C(C(=O)OCC)C1c1c(C)noc1C(C)Cc1cccc(Br)c1 (racemic) | 61.2 |  |  |
| CCOC(=O)C1=C(C)N=C(C)/C(=C(/O)OCC)C1c1c(-c2cccc(Cl)c2)noc1C (stereo unspecified) | 26.8 | 1.98 |  |
| CCOC(=O)C1=C(C)N=C(C)/C(=C(/O)OCC)C1c1c(-c2ccccc2)noc1CCc1ccccc1 (stereo unspecified) | 27.6 |  | 7.26 |
| CCOC(=O)C1=C(C)N=C(C)/C(=C(/O)OCC)C1c1c(-c2ccccc2)noc1C (stereo unspecified) | 48.9 |  | 7.86 |
| CCOC(=O)C1=C(C)N=C(C)/C(=C(/O)OCC)C1c1c(-c2ccccc2)noc1C(C)C (stereo unspecified) | 38.4 |  |  |
| CCOC(=O)C1=C(C)N=C(C)/C(=C(/O)OCC)C1c1c(C)noc1CCc1ccc(-c2ccccc2)cc1 (stereo unspecified) | 18.6 |  | 8.06 |
| CCOC(=O)C1=C(C)N=C(C)/C(=C(/O)OCC)C1c1c(-c2ccccc2Cl)noc1C (stereo unspecified) | 10.9 | 9.68 |  |
| CCOC(=O)C1=C(C)N=C(C)/C(=C(/O)OCC)C1c1c(-c2ccc(Cl)cc2)noc1C (stereo unspecified) | 11.7 |  |  |
